molecular target: T1, mouse Nurr1 receptor (Mus musculus, UniProt Q06219); test: Evaluation of the in vitro activity on N2A cells (NBRE-luciferase reporter); type: cell-based; settings: N2A (Neuro-2A) cells endogenously expressing Nurr1, stably transfected with 8NBRE-luciferase; products incubated 24 hours; luminescence
T1 construct: a cell line (N2A) endogenously expressing the mouse Nurr1 receptor; host or cells: Neuro-2A (N2A) mouse neuroblastoma cells stably transfected with 8NBRE-luciferase
Protocol: The activity of the compounds according to the invention was evaluated on a cell line (N2A) endogenously expressing the mouse Nurr1 receptor and stably transfected with the NOT binding response element (NBRE) coupled to the luciferase reporter gene. The EC50 values are between 0.01 and 1000 nM. The assays were carried out according to the procedure described below.
The Neuro-2A cell line comes from a standard commercial source (ATCC). The Neuro-2A clone was obtained, from a spontaneous tumour originating from an A albino mouse strain, by R. J Klebe et al. This Neuro-2A line is subsequently stably transfected with 8NBRE-luciferase. The N2A-8NBRE cells are cultured until confluence in 75 cm^2 culture flasks containing DMEM supplemented with 10% of foetal calf serum, 4.5 g/l of glucose and 0.4 mg/ml of geneticin. After a week of culture, the cells are recovered with 0.25% trypsin for 30 seconds and then resuspended in DMEM without phenol red, containing 4.5 g/l of glucose and 10% of Hyclone delipidized serum, and deposited into transparent-bottom 96-well white plates. The cells are deposited at a rate of 60 000 per well in 75 μl for 24 hours before the addition of the products. The products are applied in 25 μl and incubated for a further 24 hours. On the day of the measurement, an equivalent volume (100 μl) of Steadylite is added to each well and then left for a period of 30 minutes in order to obtain complete cell lysis and maximum signal production. The plates are subsequently measured in a luminescence counter for microplates after having been sealed with an adhesive film. The products are prepared in the form of a stock solution at 10^−2M and then diluted in 100% of DMSO. Each product concentration is prediluted in culture medium before incubation with the cells, thus containing 0.625% final concentration of DMSO.

T1 sequence (Q06219 whole entry): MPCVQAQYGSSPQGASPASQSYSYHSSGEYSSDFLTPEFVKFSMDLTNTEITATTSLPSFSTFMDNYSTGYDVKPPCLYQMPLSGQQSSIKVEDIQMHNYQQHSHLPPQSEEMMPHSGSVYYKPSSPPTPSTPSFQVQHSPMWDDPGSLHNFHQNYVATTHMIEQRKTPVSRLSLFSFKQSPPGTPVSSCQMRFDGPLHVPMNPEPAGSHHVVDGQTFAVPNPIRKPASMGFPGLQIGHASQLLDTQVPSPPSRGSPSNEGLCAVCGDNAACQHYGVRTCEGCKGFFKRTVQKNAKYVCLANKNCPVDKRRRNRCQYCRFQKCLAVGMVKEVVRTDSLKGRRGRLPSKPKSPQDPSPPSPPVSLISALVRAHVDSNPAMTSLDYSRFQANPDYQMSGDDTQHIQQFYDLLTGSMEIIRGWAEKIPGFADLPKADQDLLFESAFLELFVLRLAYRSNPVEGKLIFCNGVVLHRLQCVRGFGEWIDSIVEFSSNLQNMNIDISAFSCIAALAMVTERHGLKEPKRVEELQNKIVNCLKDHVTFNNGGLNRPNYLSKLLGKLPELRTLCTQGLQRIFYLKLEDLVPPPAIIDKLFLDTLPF

SMILES	EC50 [nM]
O=C(c1cn2cc(-c3cccc(CO)c3)ccc2n1)N1CC=CC1 [Compound 7, {3-[2-(2,5-Dihydro-1H-pyrrol-1-ylcarbonyl)imidazo[1,2-α]pyridin-6-yl]phenyl}methanol]	5
CN(C)c1ccc2nc(C(=O)N3CCc4ccc(F)cc43)cn2c1 [Compound 17, 2-[(6-Fluoro-2,3-dihydro-1H-indol-1-yl)carbonyl]-N,N-dimethylimidazo[1,2-α]pyridin-6-amine]	6.7
O=C(c1cn2cc(-c3ncco3)ccc2n1)N1CC=CCC1 [Compound 30, 6-(Oxazol-2-yl)-2-[(1,2,5,6-tetrahydropyridin-1-yl)carbonyl]imidazo[1,2-α]pyridine]	56
O=C(c1cn2cc(-c3nc[nH]n3)ccc2n1)N1CCc2ccccc21 [Compound 35, 2-(2,3-Dihydro-1H-indol-1-ylcarbonyl)-6-(1H-1,2,4-triazol-3-yl)imidazo[1,2-α]pyridine]	11

Compounds with a lower EC50, results first:

EC50 [nM]	SMILES
0.8	O=C(c1cn2cc(-c3cccc(CO)c3)ccc2n1)N1CC=CCC1 [Compound 8, {3-[2-[(1,2,5,6-Tetrahydropyridin-1-yl)carbonyl]imidazo[1,2-α]pyridin-6-yl]phenyl}methanol]
2.4	O=C(c1cn2cc(-c3c[nH]cn3)ccc2n1)N1CCc2ccccc21 [Compound 43, 2-(2,3-Dihydro-1H-indol-1-ylcarbonyl)-6-(1H-imidazol-4-yl)imidazo[1,2-α]pyridine]

Reference: patent US20100317656A1, “IMIDAZO[1,2-a]PYRIDINE-2-CARBOXAMIDE DERIVATIVES, PREPARATION THEREOF AND APPLICATION THEREOF IN THERAPEUTICS” (SANOFI-AVENTIS, priority 2008, published 2010)
